From ChEMBL document CHEMBL3885881, “DrugMatrix”

Species: Rattus norvegicus
Assay: DrugMatrix - Regimen: Daily Repeat
Format: toxicity, organism-based, Sprague-Dawley
Set-up: regimen Daily Repeat, gender Male, age 6-8 weeks
Settings: in vivo, po, route oral GAVAGE, vehicle 100 % WATER; for ABSOLUTE BASOPHIL / ABSOLUTE EOSINOPHIL / ABSOLUTE LYMPHOCYTE / ABSOLUTE MONOCYTE / ABSOLUTE SEGMENTED NEUTROPHIL / BASOPHIL / EOSINOPHIL / ERYTHROCYTE COUNT / HEMATOCRIT / HEMOGLOBIN / LEUKOCYTE COUNT / LYMPHOCYTE / MEAN CORPUSCULAR HEMOGLOBIN / MEAN CORPUSCULAR HEMOGLOBIN CONCENTRATION / MEAN CORPUSCULAR VOLUME / MONOCYTE / NEUTROPHIL / NUCLEATED RED BLOOD CELLS / PLATELET COUNT: tissue Blood; for ALANINE AMINOTRANSFERASE / ALBUMIN / ALKALINE PHOSPHATASE / ASPARTATE AMINOTRANSFERASE / BLOOD UREA NITROGEN / CARBON DIOXIDE / CHLORIDE / CHOLESTEROL / CREATINE PHOSPHOKINASE / CREATININE / GLUCOSE / LACTATE DEHYDROGENASE / LIPASE / PHOSPHORUS / POTASSIUM / SODIUM / TOTAL BILIRUBIN / TOTAL PROTEIN / URIC ACID: tissue Plasma
[1] = 58 mg/kg, 120 h, dose level Low, time 5 day
[2] = 1400 mg/kg, 72 h, dose level High, time 3 day
[3] = 1400 mg/kg, 120 h, dose level High, time 5 day

Compound: Cc1cn([C@H]2C=C[C@@H](CO)O2)c(=O)[nH]c1=O [STAVUDINE]
- ABSOLUTE BASOPHIL [1]: 0 CELLS/uL
- ABSOLUTE EOSINOPHIL [1]: 94.33 CELLS/uL
- ABSOLUTE LYMPHOCYTE [1]: 9260.33 CELLS/uL
- ABSOLUTE MONOCYTE [1]: 0 CELLS/uL
- ABSOLUTE SEGMENTED NEUTROPHIL [1]: 878.67 CELLS/uL
- BASOPHIL [1]: 0%
- EOSINOPHIL [1]: 1%
- ERYTHROCYTE COUNT [1]: 5.68 x10E6/uL
- HEMATOCRIT [1]: 35.3%
- HEMOGLOBIN [1]: 13.67 G/DL
- LEUKOCYTE COUNT [1]: 10.23 x10E3/uL
- LYMPHOCYTE [1]: 90%
- MEAN CORPUSCULAR HEMOGLOBIN [1]: 24.17 pg
- MEAN CORPUSCULAR HEMOGLOBIN CONCENTRATION [1]: 38.73 G/DL
- MEAN CORPUSCULAR VOLUME [1]: 62.33 fL
- MONOCYTE [1]: 0%
- NEUTROPHIL [1]: 9%
- NUCLEATED RED BLOOD CELLS [1]: 0.33 /100WBC
- PLATELET COUNT [1]: 999.33 x10E3/uL
- ALANINE AMINOTRANSFERASE [1]: 49 u/L
- ALBUMIN [1]: 4.1 G/DL
- ALKALINE PHOSPHATASE [1]: 425 u/L
- ASPARTATE AMINOTRANSFERASE [1]: 86.33 u/L
- BLOOD UREA NITROGEN [1]: 14.33 mg/dL
- CARBON DIOXIDE [1]: 28.33 mmol/L
- CHLORIDE [1]: 104 MEQ/L
- CHOLESTEROL [1]: 72.33 mg/dL
- CREATINE PHOSPHOKINASE [1]: 506.33 u/L
- CREATININE [1]: 0.15 mg/dL
- GLUCOSE [1]: 173.33 mg/dL
- LACTATE DEHYDROGENASE [1]: 155.33 u/L
- LIPASE [1]: 8.67 u/L
- PHOSPHORUS [1]: 11.87 mg/dL
- POTASSIUM [1]: 5.3 MEQ/L
- SODIUM [1]: 146.7 MEQ/L
- TOTAL BILIRUBIN [1]: 0.17 mg/dL
- TOTAL PROTEIN [1]: 6.03 G/DL
- URIC ACID [1]: 0.67 mg/dL
- ABSOLUTE BASOPHIL [2]: 0 CELLS/uL
- ABSOLUTE EOSINOPHIL [2]: 0 CELLS/uL
- ABSOLUTE LYMPHOCYTE [2]: 15246 CELLS/uL
- ABSOLUTE MONOCYTE [2]: 148.33 CELLS/uL
- ABSOLUTE SEGMENTED NEUTROPHIL [2]: 1072.33 CELLS/uL
- BASOPHIL [2]: 0%
- EOSINOPHIL [2]: 0%
- ERYTHROCYTE COUNT [2]: 5.98 x10E6/uL
- HEMATOCRIT [2]: 37.4%
- HEMOGLOBIN [2]: 14.87 G/DL
- LEUKOCYTE COUNT [2]: 16.47 x10E3/uL
- LYMPHOCYTE [2]: 92.67%
- MEAN CORPUSCULAR HEMOGLOBIN [2]: 24.9 pg
- MEAN CORPUSCULAR HEMOGLOBIN CONCENTRATION [2]: 39.77 G/DL
- MEAN CORPUSCULAR VOLUME [2]: 62.67 fL
- MONOCYTE [2]: 1%
- NEUTROPHIL [2]: 6.33%
- NUCLEATED RED BLOOD CELLS [2]: 0 /100WBC
- PLATELET COUNT [2]: 998.33 x10E3/uL
- ALANINE AMINOTRANSFERASE [2]: 113.67 u/L
- ALBUMIN [2]: 3.93 G/DL
- ALKALINE PHOSPHATASE [2]: 510.67 u/L
- ASPARTATE AMINOTRANSFERASE [2]: 191 u/L
- BLOOD UREA NITROGEN [2]: 12.33 mg/dL
- CARBON DIOXIDE [2]: 27 mmol/L
- CHLORIDE [2]: 100.67 MEQ/L
- CHOLESTEROL [2]: 97.33 mg/dL
- CREATINE PHOSPHOKINASE [2]: 237.67 u/L
- CREATININE [2]: 0.15 mg/dL
- GLUCOSE [2]: 155 mg/dL
- LACTATE DEHYDROGENASE [2]: 355 u/L
- LIPASE [2]: 11.33 u/L
- PHOSPHORUS [2]: 12.77 mg/dL
- POTASSIUM [2]: 6.93 MEQ/L
- SODIUM [2]: 142.73 MEQ/L
- TOTAL BILIRUBIN [2]: 0.23 mg/dL
- TOTAL PROTEIN [2]: 5.63 G/DL
- URIC ACID [2]: 1.47 mg/dL
- ABSOLUTE BASOPHIL [3]: 0 CELLS/uL
- ABSOLUTE EOSINOPHIL [3]: 247.33 CELLS/uL
- ABSOLUTE LYMPHOCYTE [3]: 16216.67 CELLS/uL
- ABSOLUTE MONOCYTE [3]: 311.33 CELLS/uL
- ABSOLUTE SEGMENTED NEUTROPHIL [3]: 2358 CELLS/uL
- BASOPHIL [3]: 0%
- EOSINOPHIL [3]: 1.33%
- ERYTHROCYTE COUNT [3]: 5.64 x10E6/uL
- HEMATOCRIT [3]: 35.57%
- HEMOGLOBIN [3]: 13.87 G/DL
- LEUKOCYTE COUNT [3]: 19.13 x10E3/uL
- LYMPHOCYTE [3]: 84.67%
- MEAN CORPUSCULAR HEMOGLOBIN [3]: 24.6 pg
- MEAN CORPUSCULAR HEMOGLOBIN CONCENTRATION [3]: 39 G/DL
- MEAN CORPUSCULAR VOLUME [3]: 63.1 fL
- MONOCYTE [3]: 1.67%
- NEUTROPHIL [3]: 12.33%
- NUCLEATED RED BLOOD CELLS [3]: 0 /100WBC
- PLATELET COUNT [3]: 1296.67 x10E3/uL
- ALANINE AMINOTRANSFERASE [3]: 50.33 u/L
- ALBUMIN [3]: 4.17 G/DL
- ALKALINE PHOSPHATASE [3]: 429.33 u/L
- ASPARTATE AMINOTRANSFERASE [3]: 75 u/L
- BLOOD UREA NITROGEN [3]: 14.67 mg/dL
- CARBON DIOXIDE [3]: 23 mmol/L
- CHLORIDE [3]: 102 MEQ/L
- CHOLESTEROL [3]: 81.67 mg/dL
- CREATINE PHOSPHOKINASE [3]: 207 u/L
- CREATININE [3]: 0.21 mg/dL
- GLUCOSE [3]: 162 mg/dL
- LACTATE DEHYDROGENASE [3]: 128.33 u/L
- LIPASE [3]: 11.67 u/L
- PHOSPHORUS [3]: 11 mg/dL
- POTASSIUM [3]: 5.59 MEQ/L
- SODIUM [3]: 145 MEQ/L
- TOTAL BILIRUBIN [3]: 0.2 mg/dL
- TOTAL PROTEIN [3]: 5.8 G/DL
- URIC ACID [3]: 1.77 mg/dL
